{
  "source": "patent US20030153073A1",
  "about": "“Expansion of T cells in vitro and expanded T cell populations” (priority 2001, published 2003)",
  "key": {"Jurkat tumor cells": {"tested_on": "Jurkat tumor cells", "assay": "51Cr cytotoxicity assay, Vα24+ T cell effectors, Jurkat targets", "format": "cell-based, human", "settings": "targets pulsed 16 hours with 50 ng/ml glycolipid (FIG. 4)", "excerpt": "(§1) The cell lines U937 (histiocytic lymphoma), RAJI (Burkitt's B cell lymphoma), and K562 (erythroleukemia) were originally obtained from the American Type Culture Collection, ATCC (Mannassas, Va.) and were a gift from Dr. D. Green (La Jolla Institutive for Allergy and Immunology (LIAI), San Diego, Calif.). The T cell leukemia Jurkat cell line was obtained from Nobuaki Takahashi (Kirin Brewery Co., Ltd., Gunma, Japan). Cells were maintained in RPMI-1640 with 10% fetal calf serum (GibcoBRL), penicillin, streptomycin, 2-mercaptoethanol, and Hepes as described previously. For cytotoxic assays, cells were cultured at 1×10^5/ml with 50 ng/ml KRN7000, β-GalCer, or 0.5% DMSO (vehicle) for 16 hours prior to assay.\n^51Cr cytotoxicity assays were performed as follows. A total of 5×10^3 51Cr-labeled cells (Na2^51CrO3) (ICN Biomedicals, Inc.) from the U937, K562, or Jurkat cell line as the target cells and various numbers of effector Vα24^+ T cells in 0.2 ml of culture medium were seeded into round-bottom microtiter wells. The culture was incubated at 37° C. in an atmosphere containing 6% CO2 for 5 h, and 0.1 ml of supernatant was collected from each well. The percentage of specific ^51Cr release was calculated as follows: [(cpm experimental−cpm spontaneous release)/(cpm maximal release−cpm spontaneous release)]×100. […]"}, "RAJI": {"tested_on": "RAJI", "assay": "51Cr cytotoxicity assay, Vα24+ T cell effectors, RAJI targets", "format": "cell-based, human", "settings": "data not shown", "excerpt": "as §1\n(§2) ^51Cr cytotoxicity assays were performed as follows. A total of 5×10^3 51Cr-labeled cells (Na2^51CrO3) (ICN Biomedicals, Inc.) from the U937, K562, or Jurkat cell line as the target cells and various numbers of effector Vα24^+ T cells in 0.2 ml of culture medium were seeded into round-bottom microtiter wells. The culture was incubated at 37° C. in an atmosphere containing 6% CO2 for 5 h, and 0.1 ml of supernatant was collected from each well. The percentage of specific ^51Cr release was calculated as follows: [(cpm experimental−cpm spontaneous release)/(cpm maximal release−cpm spontaneous release)]×100."}, "[1]": {"tested_on": "CD3^+hCD1d/KRN7000 Tetramer^+ T cells", "assay": "Expansion of CD3+ hCD1d/KRN7000 Tetramer+ T cells in PBMC culture, 7 days", "format": "cell-based, human"}, "K562": {"tested_on": "K562", "assay": "51Cr cytotoxicity assay, Vα24+ T cell effectors, K562 targets", "format": "cell-based, human", "settings": "targets pre-pulsed (FIG. 4)", "excerpt": "as §1, §2"}, "U937": {"tested_on": "U937", "assay": "51Cr cytotoxicity assay, Vα24+ T cell effectors, U937 targets", "format": "cell-based, human", "settings": "targets pulsed 16 hours with 50 ng/ml glycolipid (FIG. 4)", "excerpt": "as §1, §2"}, "PBMC": {"tested_on": "PBMC", "assay": "Proliferation of PBMCs, [3H]-thymidine incorporation", "format": "cell-based, human", "settings": "donor 9 PBMC, 5 days, tritiated thymidine incorporation"}, "Molt-4": {"tested_on": "Molt-4", "assay": "51Cr cytotoxicity assay, Vα24+ T cell effectors, Molt-4 targets", "format": "cell-based, human", "settings": "data not shown"}},
  "data": [
    {"molecule": "CCCCCCCCCCCCCCCCCCCCCCCCCC(=O)N[C@@H](CO[C@H]1O[C@H](CO)[C@H](O)[C@H](O)[C@H]1O)[C@H](O)[C@H](O)CCCCCCCCCCCCCC", "note": "[KRN7000, (2S,3S,4R)-1-O-(alpha-D-Galactopyranosyl)-N-hexacosanoyl-2-amino-1,3,4-octadecanetriol]", "values": [
      {"measurement": "lysis of glycolipid-pulsed Jurkat target cells by CD4^+ and CD4^− expanded Vα24^+ T cells", "setting": "Jurkat tumor cells", "result": "lysed"},
      {"measurement": "increase in Vα24/Vβ11 cells with autologous donor serum versus commercial pooled human serum", "setting": "Vα24^+Vβ11^+ T cells; 3 donors, KRN7000 and rhIL-2, 7 days", "result": "up to 7 times"},
      {"measurement": "Percentage of Vα24/Vβ11 cells", "setting": "Vα24^+Vβ11^+ T cells; donor 9 PBMC, 7 days, flow cytometry", "result": 0.25, "unit": "%"},
      {"measurement": "Number of Vα24Vβ11 cells", "setting": "Vα24^+Vβ11^+ T cells; donor 9 PBMC, day 7, cell recovery × percentage", "result": "2,125"},
      {"measurement": "killing of RAJI target cells by expanded Vα24^+ T cells", "setting": "RAJI", "result": "not killed"},
      {"measurement": "% CD^3+ Tetramer^+ cells", "setting": "[1]; PBMC 1×10^6/ml, 7 days, KRN7000 100 ng/ml, rhIL-2 10 ng/ml, rhIL-15 100 ng/ml, flow cytometry", "result": 0.03, "unit": "%"},
      {"measurement": "number of Tetramer^+ cells", "setting": "[1]; percentage × cells recovered, day 7", "result": 312},
      {"measurement": "lysis of glycolipid-pulsed K562 target cells by expanded Vα24^+ T cells", "setting": "K562", "result": "not lysed"},
      {"measurement": "lysis of glycolipid-pulsed U937 target cells by CD4^+ and CD4^− expanded Vα24^+ T cells", "setting": "U937", "result": "lysed"},
      {"measurement": "Proliferation, cpm", "setting": "PBMC", "result": "little or no proliferation"},
      {"measurement": "Proliferation, cpm", "setting": "PBMC; listed as KRN7000 only", "result": "1,145 cpm"},
      {"measurement": "killing of Molt-4 target cells by expanded Vα24^+ T cells", "setting": "Molt-4", "result": "not killed"}
    ]},
    {"molecule": "β-galactosylceramide [β-GalCer]", "values": [
      {"measurement": "lysis of glycolipid-pulsed Jurkat target cells by CD4^+ and CD4^− expanded Vα24^+ T cells", "setting": "Jurkat tumor cells", "result": "not lysed"},
      {"measurement": "lysis of glycolipid-pulsed U937 target cells by CD4^+ and CD4^− expanded Vα24^+ T cells", "setting": "U937", "result": "not lysed"}
    ]}
  ]
}
